Assay results: patent US20120141467A1, “Ascorbic acid to treat chronic obstructive lung diseases and non-Hodgkin's lymphoma” (priority 2010, published 2012)

Tested on: upper respiratory mucosa
Test: Safety tests of topical ascorbate (spray, lozenge) on upper respiratory mucosa
Conditions: Three ml oral/nasal spray in sterile water three times daily for six months
Text: Initiation of the test sought first to assure that the designed aerosol would be safely tolerated by the IC's respiratory mucosa.

Compound: O=C1O[C@H]([C@@H](O)CO)C(O)=C1O [ascorbate]
- Adverse effects of spray on upper respiratory mucosa: no adverse effects
